Common to all, as to type: in vivo
Assay [1] concerns Myzus persicae. The experiment in a line: B3: Myzus persicae (green peach aphid), mixed population, systemic/feeding activity, curative. As to conditions: 144 h, roots of infested pea seedlings placed in test solutions of 24 ppm, 6 days after introduction, read-out: control of Myzus persicae (mortality). An excerpt: B3: Myzus persicae (green peach aphid) (mixed population, systemic/feeding activity, curative)
Roots of pea seedlings, infested with an aphid population of mixed ages, are placed directly in the test solutions of 24 ppm. 6 days after introduction, samples are checked for mortality and special effects on the plant.

Assay [2] has as its system Myzus persicae. The assay can be described thus: B2: Myzus persicae (green peach aphid), mixed population, feeding/residual contact activity, preventive. As to conditions: foliar, 144 h, sunflower leaf discs sprayed with test solutions of 200 ppm, aphid population of mixed ages, 6 days incubation, read-out: control of Myzus persicae (mortality). As to the method: B2: Myzus persicae (green peach aphid) (mixed population, feeding/residual contact activity, preventive)
Sunflower leaf discs are placed on agar in a 24-well microtiter plate and sprayed with test solutions of 200 ppm. After drying, the leaf discs are infested with an aphid population of mixed ages. After an incubation period of 6 days, samples are checked for mortality and special effects (e.g. phytotoxicity).

For assay [3], the system named is Myzus persicae. The experiment in a line: B1: Myzus persicae (green peach aphid), mixed population, sachet test. As to conditions: 144 h, 12.5 ppm test compound in 30% sucrose solution, parafilm sachet, 6 days after infestation, read-out: control of Myzus persicae (mortality, feeding activity). As for the experimental part: B1: Myzus persicae (green peach aphid) (mixed population, sachet test)
Each well of a 24-well microtiter plate is filled with 0.6 ml 30% sucrose solution, containing 12.5 ppm of the test compounds. For producing the sachets, the wells are covered with streched parafilm and infested with a mixed population of Myzus persicae. 6 days after the infestation, samples are checked for mortality (feeding activity).

In general, mortality refers to the share of the test organisms that died.

Consider `CNC1=NS(=O)(=O)c2c(F)cccc21` [Compound P1.15, (7-Fluoro-1,1-dioxo-1H-1λ^6-benzo[d]isothiazol-3-yl)-methyl-amine], for which the mortality at 24 ppm in the assay with Myzus persicae [1] is at least 80%. Also, the mortality at 200 ppm in the assay with Myzus persicae [2] was at least 80%.

Turning to `CC(C)N1C(=N)c2cccc(Br)c2S1(=O)=O` [Compound P2.1, 7-bromo-2-isopropyl-1,1-dioxo-1,2-dihydro-1λ^6-benzo[d]isothiazol-3-ylideneamine], the mortality at 12.5 ppm with Myzus persicae [3] is at least 80%.

`NC1=NS(=O)(=O)c2c(Br)cccc21` [Compound P1.1, 7-bromo-1,1-dioxo-1H-1λ^6-benzo[d]isothiazol-3-ylamine]: the mortality at 24 ppm in the assay with Myzus persicae [1] was at least 80%. Moreover, the mortality at 200 ppm with Myzus persicae [2] is at least 80%.

The values above are taken from patent US8563744B2, “3-amino-benzo [D] isothiazole dioxide derivatives and their use as pesticides” (Syngenta Crop Protection, LLC, priority 2008, dated 2013).
